Values after ≈ are worked out from the molar mass of the structure shown. Like-named read-outs stand apart in the source and are kept apart here. Starred links: 1 amine or outer side, 2 acyl side, 3 side chain; linkers in the order of their positions; H or OH if unused. Positions of bridges follow the written chain, without caps; N, C: chain ends. Non-standard residues stand in square brackets, D forms with d. Residues, ends and D or L forms follow the SMILES beside them. *: point of attachment. hTyr(3S-OH,4S-OH,3'-OSO3H) = N[C@H](C(=O)O)[C@H](O)[C@@H](O)c1ccc(O)c(OS(=O)(=O)O)c1; pTerphenylCO(4''-OnC5H11) = CCCCCOc1ccc(-c2ccc(-c3ccc(C(=O)*)cc3)cc2)cc1; Orn(4R-OH,5R-OH) = O=C([C@H](C[C@@H](O)[C@@H](O)N[*:3])N[*:1])[*:2]; hTyr(3S-OH,4S-OH) = N[C@H](C(=O)O)[C@H](O)[C@@H](O)c1ccc(O)cc1; Pro(3S-OH,4S-Me) = C[C@H]1CN[C@H](C(=O)O)[C@H]1O; X1 = CCCCCOc1ccc(-c2cc(-c3ccc(C(=O)*)cc3)no2)cc1; Gln(3R-OH) = NC(=O)C[C@@H](O)[C@H](N)C(=O)O; Hyp = O=C(O)[C@@H]1C[C@@H](O)CN1
Experiments:
Candida parapsilosis = details: 759 isolates; cited from earlier work
Aspergillus fumigatus [1] = details: 1691 isolates; cited from earlier work
Aspergillus niger [2] = details: 10 isolates; cited from earlier work
Candida guilliermondii = details: 61 isolates; cited from earlier work
Aspergillus flavus [3] = details: 432 isolates; cited from earlier work
Aspergillus nidulans [4] = details: 192 isolates; cited from earlier work
Aspergillus fumigatus [5] = details: 56 isolates; cited from earlier work
[6] = Toxicology observations in the rat inhalation/IV study (mortality, clinical signs, body weight, necropsy); format: in vivo; details: male rats, nose-only inhalation or intravenous injection, 2 mg/kg
Procedure: A detailed, hand-held physical examination was conducted on all animals once during the quarantine period (prior to randomization). During the treatment period, the animals were observed daily for mortality or evidence of moribundity; these checks were separated by a minimum of four hours. Daily cage-side clinical observations were conducted during exposure, and daily hand-held clinical observations were conducted before and after exposure. Observations included, but were not limited to the following: changes in the skin and fur, eyes, and mucous membranes; effects on the respiratory, circulatory, autonomic and central nervous systems; and effects on somatomotor activity and behavior pattern.
Body Weights and Body Weight Changes: Body weights were determined one day after animal receipt; at randomization; and prior to exposure on Study Day 1, 2, 3 and 7 (as applicable based on scheduled euthanization).

Aspergillus flavus [7] = details: 13 isolates; cited from earlier work
Aspergillus nidulans [8] = details: 13 isolates; cited from earlier work
Aspergillus terrus [9] = details: 385 isolates; cited from earlier work
Candida tropicalis = details: 625 isolates; cited from earlier work
in vivo = details: Sprague-Dawley, rat
Procedure: Tissue specimens (lung, liver and kidney) were collected from three animals per time point at 0.5, 2, 24 and 48 hours and 7 days after dose administration. All tissue specimens were stored frozen at approximately −70° C. until analyzed.
In Vivo Details: Thirty Sprague-Dawley derived rats [Crl:CD®(CD)Br] were obtained from Charles River Laboratories, Inc., Wilmington, Mass., for use in this study. The rats were 52 days of age (approximately 7.5 weeks) upon arrival. One day following receipt, body weights of the rats ranged from 171 g to 213 g. The animals were held in quarantine for 7 days prior to administration of the test article. […] Before being released from quarantine, the animals were given a detailed, hand-held physical examination to ensure their health and suitability as test subjects. The test animals were approximately 8.5 weeks old at the start of the first exposure to the test article.
The resulting solution was aseptically filtered and kept refrigerated between 2-8° C. until used.
Test Article Dosing: The animals were randomized into two groups of 15 animals based on body weight.
Inhalation Exposure Methods:
All study animals surviving to scheduled necropsy were euthanized by an overdose of an intraperitoneal injection of sodium pentobarbital at 35-45 mg/kg. Tissue specimens (lung, liver and kidney) were collected from three animals per time point at 0.5, 2, 24 and 48 hours and 7 days after dose administration. All tissue specimens were stored frozen at approximately −70° C. until analyzed.
After shaking for five minutes, the sample was centrifuged at 4° C. for 10 minutes to remove precipitated proteins and supernatant was transferred to an autosampler tube, diluted with 0.5 mL of water, and vortex-mixed for instrumental analysis.
Subsequently, 100 μL of the supernatant was transferred to a 2 mL centrifuge tube and processed for analysis using the same procedure as for plasma.
Tissue results in ng were converted to g/g using the amount of tissue extracted and the final extract volume.

Candida albicans = details: 2869 isolates; cited from earlier work
[10] = rat, 2 mg/kg, cited from earlier work
Candida galbrata = details: 747 isolates; cited from earlier work
Aspergillus versicolor = details: 75 isolates; cited from earlier work
Aspergillus terrus [11] = details: 11 isolates; cited from earlier work
Aspergillus niger [12] = details: 440 isolates; cited from earlier work
Candida krusei = details: 136 isolates; cited from earlier work
[13] = rat, intravenous; cited from earlier work
[14] = cited from earlier work

CC[C@H](C)C[C@H](C)CCCCCCCCC(=O)N[C@H]1C[C@@H](O)[C@@H](NCCN)NC(=O)[C@@H]2[C@@H](O)CCN2C(=O)[C@H]([C@H](O)CCN)NC(=O)[C@H]([C@H](O)[C@@H](O)c2ccc(O)cc2)NC(=O)[C@@H]2C[C@@H](O)CN2C(=O)[C@H]([C@@H](C)O)NC1=O [Caspofungin, caspofungin]
MIC90 (Candida parapsilosis): 2 mg/L (≈ 1.83 µM)
MEC Average (Mode, most frequent MEC) (Aspergillus fumigatus [1]): 0.25 µg/mL
MEC Range (Aspergillus fumigatus [1]): 0.016 to 32 µg/mL
MIC90 Average (Geometric Mean MIC) (Aspergillus niger [2]): 0.14 mg/L (≈ 0.128 µM)
MIC90 Range (Aspergillus niger [2]): 0.06 to 0.5 mg/L
MIC90 (Candida guilliermondii): 2 mg/L (≈ 1.83 µM)
MEC Average (Mode, most frequent MEC) (Aspergillus flavus [3]): 0.06 µg/mL
MEC Range (Aspergillus flavus [3]): 0.016 to 32 µg/mL
MEC Average (Mode, most frequent MEC) (Aspergillus nidulans [4]): 0.12 µg/mL
MEC Range (Aspergillus nidulans [4]): 0.032 to 16 µg/mL
MIC90 Average (Geometric Mean MIC) (Aspergillus fumigatus [5]): 0.25 mg/L (≈ 0.229 µM)
MIC90 Range (Aspergillus fumigatus [5]): 0.12 to 4 mg/L
clinical signs of toxicity [6]: no clinical signs of toxicity
effects on body weight [6]: no effects on body weight
gross necropsy findings [6]: no gross necropsy findings attributable to exposure to the test article
test-article related mortality [6]: no test-article related mortality
MIC90 Average (Geometric Mean MIC) (Aspergillus flavus [7]): 0.2 mg/L (≈ 0.183 µM)
MIC90 Range (Aspergillus flavus [7]): 0.06 to 2 mg/L
MIC90 Average (Geometric Mean MIC) (Aspergillus nidulans [8]): 0.44 mg/L (≈ 0.402 µM)
MIC90 Range (Aspergillus nidulans [8]): 0.2 to 4 mg/L
MEC Average (Mode, most frequent MEC) (Aspergillus terrus [9]): 0.06 µg/mL
MEC Range (Aspergillus terrus [9]): 0.016 to 2 µg/mL
MIC90 (Candida tropicalis): 0.06 mg/L (≈ 0.0549 µM)
concentration at 0.5 h (in vivo; kidney, inhaled, 2 mg/kg): 160 ng/g
concentration at 2 h (in vivo; kidney, inhaled, 2 mg/kg): 160 ng/g
concentration at 24 h (in vivo; kidney, inhaled, 2 mg/kg): 160 ng/g
concentration at 48 h (in vivo; kidney, inhaled, 2 mg/kg): 120 ng/g
concentration at 168 h (in vivo; kidney, inhaled, 2 mg/kg): 20 ng/g
concentration at 0.5 h (in vivo; kidney, iv, 2 mg/kg): 500 ng/g
concentration at 2 h (in vivo; kidney, iv, 2 mg/kg): 670 ng/g
concentration at 24 h (in vivo; kidney, iv, 2 mg/kg): 500 ng/g
concentration at 0.5 h (in vivo; liver, inhaled, 2 mg/kg): 90 ng/g
concentration at 2 h (in vivo; liver, inhaled, 2 mg/kg): 130 ng/g
concentration at 24 h (in vivo; liver, inhaled, 2 mg/kg): 300 ng/g
concentration at 48 h (in vivo; liver, inhaled, 2 mg/kg): 180 ng/g
concentration at 168 h (in vivo; liver, inhaled, 2 mg/kg): 20 ng/g
concentration at 0.5 h (in vivo; liver, iv, 2 mg/kg): 250 ng/g
concentration at 2 h (in vivo; liver, iv, 2 mg/kg): 310 ng/g
concentration at 24 h (in vivo; liver, iv, 2 mg/kg): 660 ng/g
concentration at 0 h (in vivo; lung, inhaled, 2 mg/kg): 10800 ng/g
concentration at 0.5 h (in vivo; lung, inhaled, 2 mg/kg): 10800 ng/g
concentration at 2 h (in vivo; lung, inhaled, 2 mg/kg): 10400 ng/g
concentration at 24 h (in vivo; lung, inhaled, 2 mg/kg): 5310 ng/g
concentration at 39 h (in vivo; lung, inhaled, 2 mg/kg): 5420 ng/g
concentration at 48 h (in vivo; lung, inhaled, 2 mg/kg): 3370 ng/g
concentration at 78 h (in vivo; lung, inhaled, 2 mg/kg): 2710 ng/g
concentration at 117 h (in vivo; lung, inhaled, 2 mg/kg): 1350 ng/g
concentration at 156 h (in vivo; lung, inhaled, 2 mg/kg): 680 ng/g
concentration at 168 h (in vivo; lung, inhaled, 2 mg/kg): 390 ng/g
concentration at 195 h (in vivo; lung, inhaled, 2 mg/kg): 340 ng/g
concentration at 273 h (in vivo; lung, inhaled, 2 mg/kg): 80 ng/g
concentration at 312 h (in vivo; lung, inhaled, 2 mg/kg): 40 ng/g
concentration at 351 h (in vivo; lung, inhaled, 2 mg/kg): 20 ng/g
concentration at 0 h (in vivo; lung, inhaled, 7.2 mg/kg): 39000 ng/g
concentration at 39 h (in vivo; lung, inhaled, 7.2 mg/kg): 19500 ng/g
concentration at 78 h (in vivo; lung, inhaled, 7.2 mg/kg): 9750 ng/g
concentration at 117 h (in vivo; lung, inhaled, 7.2 mg/kg): 4880 ng/g
concentration at 156 h (in vivo; lung, inhaled, 7.2 mg/kg): 2440 ng/g
concentration at 195 h (in vivo; lung, inhaled, 7.2 mg/kg): 1220 ng/g
concentration at 273 h (in vivo; lung, inhaled, 7.2 mg/kg): 300 ng/g
concentration at 312 h (in vivo; lung, inhaled, 7.2 mg/kg): 150 ng/g
concentration at 351 h (in vivo; lung, inhaled, 7.2 mg/kg): 80 ng/g
concentration at 0.5 h (in vivo; lung, iv, 2 mg/kg): 590 ng/g
concentration at 2 h (in vivo; lung, iv, 2 mg/kg): 540 ng/g
concentration at 24 h (in vivo; lung, iv, 2 mg/kg): 180 ng/g
concentration at 48 h (in vivo; lung, iv, 2 mg/kg): 90 ng/g
concentration at 168 h (in vivo; lung, iv, 2 mg/kg): 0 ng/g
concentration at 0.5 h (in vivo; plasma, inhaled, 2 mg/kg): 2.03 µg/mL
concentration at 24 h (in vivo; plasma, inhaled, 2 mg/kg): 0.23 µg/mL
concentration at 48 h (in vivo; plasma, inhaled, 2 mg/kg): 0.08 µg/mL
concentration at 168 h (in vivo; plasma, inhaled, 2 mg/kg): 0 µg/mL
concentration at 0.5 h (in vivo; plasma, iv, 2 mg/kg): 11 µg/mL
concentration at 2 h (in vivo; plasma, iv, 2 mg/kg): 7.72 µg/mL
concentration at 24 h (in vivo; plasma, iv, 2 mg/kg): 0.8 µg/mL
MIC90 (Candida albicans): 0.06 mg/L (≈ 0.0549 µM)
Kidney concentration, Stone 2004 (radiolabeled compound) ([10]; 0.5 h): 9.15 µg/g
Liver concentration, Stone 2004 (radiolabeled compound) ([10]; 0.5 h): 5.03 µg/g
Lung concentration, Stone 2004 (radiolabeled compound) ([10]; 0.5 h): 5.12 µg/g
Plasma concentration, Stone 2004 (radiolabeled compound) ([10]; 0.5 h): 11 µg/mL
Kidney concentration, Stone 2004 (radiolabeled compound) ([10]; 2 h): 10.60 µg/g
Liver concentration, Stone 2004 (radiolabeled compound) ([10]; 2 h): 7.04 µg/g
Lung concentration, Stone 2004 (radiolabeled compound) ([10]; 2 h): 4.50 µg/g
Plasma concentration, Stone 2004 (radiolabeled compound) ([10]; 2 h): 6.1 µg/mL
Kidney concentration, Stone 2004 (radiolabeled compound) ([10]; 24 h): 11.40 µg/g
Liver concentration, Stone 2004 (radiolabeled compound) ([10]; 24 h): 22.20 µg/g
Lung concentration, Stone 2004 (radiolabeled compound) ([10]; 24 h): 2.44 µg/g
Plasma concentration, Stone 2004 (radiolabeled compound) ([10]; 24 h): 1.74 µg/mL
MIC90 (Candida galbrata): 0.12 mg/L (≈ 0.11 µM)
MEC Average (Mode, most frequent MEC) (Aspergillus versicolor): 0.12 µg/mL
MEC Range (Aspergillus versicolor): 0.032 to 2 µg/mL
MIC90 Average (Geometric Mean MIC) (Aspergillus terrus [11]): 0.12 mg/L (≈ 0.11 µM)
MIC90 Range (Aspergillus terrus [11]): 0.06 to .2 mg/L
MEC Average (Mode, most frequent MEC) (Aspergillus niger [12]): 0.06 µg/mL
MEC Range (Aspergillus niger [12]): 0.016 to 2 µg/mL
MIC90 (Candida krusei): 0.06 mg/L (≈ 0.0549 µM)

CCCCCOc1ccc(-c2cc(-c3ccc(C(=O)N[C@H]4C[C@@H](O)[C@@H](O)NC(=O)[C@@H]5[C@@H](O)[C@@H](C)CN5C(=O)[C@H]([C@H](O)CC(N)=O)NC(=O)[C@H]([C@H](O)[C@@H](O)c5ccc(O)c(OS(=O)(=O)O)c5)NC(=O)[C@@H]5C[C@@H](O)CN5C(=O)[C@H]([C@@H](C)O)NC4=O)cc3)no2)cc1 [micafungin] (X1-[Orn(4R-OH,5R-OH)]T[Hyp][hTyr(3S-OH,4S-OH,3'-OSO3H)][Gln(3R-OH)][Pro(3S-OH,4S-Me)]; lactam 1-C)
exposure in kidney relative to plasma [13]: 3.4 fold
exposure in liver relative to plasma [13]: 1.6 fold
exposure in lung relative to plasma [13]: 2.9 fold

CCCCCOc1ccc(-c2ccc(-c3ccc(C(=O)N[C@H]4C[C@@H](O)[C@@H](O)NC(=O)[C@@H]5[C@@H](O)[C@@H](C)CN5C(=O)[C@H]([C@@H](C)O)NC(=O)[C@H]([C@H](O)[C@@H](O)c5ccc(O)cc5)NC(=O)[C@@H]5C[C@@H](O)CN5C(=O)[C@H]([C@@H](C)O)NC4=O)cc3)cc2)cc1 [anidulafungin] ({pTerphenylCO(4''-OnC5H11)}-[Orn(4R-OH,5R-OH)]T[Hyp][hTyr(3S-OH,4S-OH)]T[Pro(3S-OH,4S-Me)]; lactam 1-C)
time levels are maintained above MICs for common pathogens ([14]; rat tissues): ≥ 72 h
exposure in tissues (liver, lung, spleen, kidney) relative to plasma ([14]; rat): 9-12 fold
time to peak concentrations in tissues ([14]; rat): ≤ 30 min
